The test system of data set [1] is EV71. Kind of data set: In-vitro experiment against EV71 virus (RD cells, MTT). The settings on record: for pEC50: Enterovirus A, RD cells infected with 100x TCID50 EV71, compound added after 2 hrs, MTT at 48 hrs; for SI: selectivity index, EV71, RD cells. The format is cell-based. How it is done:
(§1) RD cells were seeded into a 96-well plate (10^4 cells/well), and infected with 100× TCID50 of EV71 viruses. After 2 hrs, various concentrations of the derivative were added. […] Uninfected cells were also given various concentrations of the derivative to determine the CC50.

Data set [2] in a line: Cytotoxicity in uninfected RD cells (CC50, MTT). The settings on record: human, Table 1. Type of data set: cell-based. How it is done:
as §1
RD cells were seeded into a 96-well plate (10^4 cells/well), and infected with 100×TCID50 of CAV16 viruses. After 2 hrs, various concentrations of the derivative were added. […] Uninfected cells were also given various concentrations of the derivative to determine the CC50.

The nature of data set [3]: Toxicity test in ICR mice after single administration by intraperitoneal injection. Type of data set: in vivo. The protocol:
22 10-day-old ICR mice were randomly assigned to 17 groups, and given Compound 6 once by intraperitoneal injection at a dosage of 0.625, 1.25, 2.5, 5, 10, 20, 40, 80, 100, 160, 200, 250, 300, 470, 500, 1000, or 2000 mg/kg. 1-2 animals were included in each group, and the male and female mice were administered alternately. […] The dead animals are necropsied and the changes in main organs were observed. On day 1 after administration, the weight of the animals in the 160 mg/kg group is decreases by 0.3 g, and the weight of the animals in the 0.625, 1.25, 2.5, 5, 10, 20, 40, 80, 100 mg/kg group is increased, compared to the day of administration. Under the conditions in this experiment, ICR mice were given Compound 6 once by intraperitoneal injection. The minimum lethal dose was 200 mg/kg and the maximum tolerated dose was 160 mg/kg.
24 10-day-old ICR mice were randomly assigned to 19 groups, and given Compound 6 once by intraperitoneal injection at a dosage of 0.625, 1.25, 2.5, 5, 10, 20, 40, 60, 80, 100, 120, 136, 160, 270, 320, 500, 690, 1000, or 2000 mg/kg. 1-2 animals were included in each group, and the male and female mice were administered alternately. […] The dead animals are necropsied and the changes in main organs were observed. […] Under the conditions in this experiment, ICR mice were given Compound 20 once by intraperitoneal injection.

SMILES strings stand for the structures. pEC50: −log10 of the molar value.

For the compound `O=C(COc1ccc(Cl)cc1)OC1C(O)C=C2CCN3Cc4cc5c(cc4C1C23)OCO5` (centres unmarked) [Compound 3, 1-(4-chloro-phenoxyacetyl)-lycorine], in data set [1], the pEC50 is 5.89 and the SI is listed as 139.85. Further, the CC50 at 48 h in data set [2] is 154 µM.

`O=C(CCCOc1ccccc1)OC1C(O)C=C2CCN3Cc4cc5c(cc4C1C23)OCO5` (centres unmarked) [Compound 4, 1-(4-phenoxybutyryl)-lycorine]: in data set [1], the pEC50 is 5.75 and the SI amounted to 84.84. For the same compound, half-maximal cytotoxicity in data set [2] (CC50 at 48 h) was put at 150 µM.

Take `O=C(CCOc1ccccc1)OC1C(O)C=C2CCN3Cc4cc5c(cc4C1C23)OCO5` (centres unmarked) [Compound 5, 1-(3-phenoxypropionyl)-lycorine]: in data set [1], the pEC50 is 5.84 and the SI stood at 92.43. In data set [2], the CC50 at 48 h was 134 µM.

Regarding `O=C(COc1ccc(Br)cc1)OC1C(O)C=C2CCN3Cc4cc5c(cc4C1C23)OCO5` (centres unmarked) [Compound 7, 1-(4-bromo-phenoxyacetyl)-lycorine], in data set [1], the pEC50 is 5.83 and the SI worked out at 70.36. This compound gave a CC50 at 48 h in data set [2] of 103 µM.

In the case of `O=C(COc1ccc([N+](=O)[O-])cc1)OC1C(O)C=C2CCN3Cc4cc5c(cc4C1C23)OCO5` (centres unmarked) [Compound 8, 1-(4-nitro-phenoxyacetyl)-lycorine], in data set [1], the pEC50 is 5.91 and the SI is given as 85.67. The compound also yielded a cytotoxic concentration (CC50) at 48 h in data set [2] of 105 µM.

As for `O=C(COc1ccc(I)cc1)OC1C(O)C=C2CCN3Cc4cc5c(cc4C1C23)OCO5` (centres unmarked) [Compound 9, 1-(4-iodo-phenoxyacetyl)-lycorine], in data set [1], the pEC50 is 5.74 and the SI came out at 54.15. Also, the CC50 at 48 h in data set [2] was 99.6 µM.

As to `CC(C)c1ccc(OCC(=O)OC2C(O)C=C3CCN4Cc5cc6c(cc5C2C34)OCO6)cc1` (centres unmarked) [Compound 10, 1-(4-isopropyl-phenoxyacetyl)-lycorine], in data set [1], the pEC50 is 5.78 and the SI is 60.63. Also, the midpoint of cytotoxicity in data set [2], the CC50 at 48 h, lay at 101 µM.

`O=C(CSc1ccc(Cl)cc1)OC1C(O)C=C2CCN3Cc4cc5c(cc4C1C23)OCO5` (centres unmarked) [Compound 11, 1-(4-chloro-phenylthioacetyl)-lycorine]: in data set [1], the pEC50 is 5.84 and the SI came out at 89.40. The same compound showed a CC50 at 48 h in data set [2] of 131 µM.

In data set [1], `Cc1ccc(OCC(=O)OC2C(O)C=C3CCN4Cc5cc6c(cc5C2C34)OCO6)cc1` (centres unmarked) [Compound 12, 1-(4-methylphenoxyacetyl)-lycorine] showed a pEC50 of 5.82 and an SI of 87.73. In data set [2], this compound gave a CC50 at 48 h of 134 µM.

Take `Cc1ccc(OCC(=O)OC2C(O)C=C3CCN4Cc5cc6c(cc5C2C34)OCO6)c(C)c1` (centres unmarked) [Compound 13, 1-(2,4-dimethyl-phenoxyacetyl)-lycorine]: in data set [1], the pEC50 is 5.81 and the SI was 95.33. This compound displayed a CC50 at 48 h in data set [2] of 149 µM.

In data set [1], `O=C(COc1ccccc1Cl)OC1C(O)C=C2CCN3Cc4cc5c(cc4C1C23)OCO5` (centres unmarked) [Compound 14, 1-(2-chloro-phenoxyacetyl)-lycorine] gave a pEC50 of 5.79 and an SI of 89.10. Also, in data set [2], half-maximal cytotoxicity (CC50 at 48 h) was put at 145 µM.

As for `O=C(COc1cccc(Cl)c1)OC1C(O)C=C2CCN3Cc4cc5c(cc4C1C23)OCO5` (centres unmarked) [Compound 15, 1-(3-chloro-phenoxyacetyl)-lycorine], in data set [1], the pEC50 was 5.76 and the SI turned out to be 87.61. Besides, the half-maximal cytotoxic concentration (CC50) at 48 h in data set [2] was determined as 152 µM.

In data set [3] (10-day-old ICR mice, single intraperitoneal injection, observed 14 days), `O=C(CSc1ccc(F)cc1)OC1C(O)C=C2CCN3Cc4cc5c(cc4C1C23)OCO5` (centres unmarked) [Compound 20, 1-(4-fluoro-phenylthioacetyl)-lycorine] displayed a minimum lethal dose of 160 mg/kg. The MTD at 14 days in data set [3] (both sexes, ICR, mouse, in vivo, ip) stood at 136 mg/kg. Besides, the “Weight on day 1 after administration” value in data set [3] (mouse, in vivo, ip, 0.625 mg/kg) was 5.2; in data set [3] (mouse, in vivo, ip, 1.25 mg/kg) it was 6.6; in data set [3] (mouse, in vivo, ip, 5 mg/kg), 6.4; in data set [3] (mouse, in vivo, ip, 10 mg/kg), 6.5; in data set [3] (mouse, in vivo, ip, 20 mg/kg) it was 5.9; in data set [3] (mouse, in vivo, ip, 40 mg/kg), 6.8. Moreover, the “Weight on day 1 after administration” value is given as 7 in data set [3] (mouse, in vivo, ip, 60 mg/kg); 6.8 in data set [3] (mouse, in vivo, ip, 100 mg/kg); 6.7 in data set [3] (mouse, in vivo, ip, 136 mg/kg).
